Test results as given in ChEMBL document CHEMBL1201862, “PubChem BioAssay data set” (2004).
Calls of active or inactive are those of the source.

Legend:
Prothrombin = Prothrombin (Bos taurus, UniProt P00735); test: thrombin protease inhibitors – biochemical, fluorescence polarization, uHTS hits, dose response (AID 602369); type: functional
[1] = target: 26S proteasome non-ATPase regulatory subunit 14 (Homo sapiens, UniProt O00487); test: inhibition of proteasome subunit RPN11 – biochemical, fluorescence polarization, uHTS hits, confirmation (AID 602368); type: functional
[2] = target: 72 kDa type IV collagenase (Homo sapiens, UniProt P08253); test: Dose Response validation of uHTS RPN11 inhibitor hits using a MMP-2 Fluorescence assay.; type: functional
P388/ADR = test: cells; type: functional; details: Mus musculus
SN12K1 = test: cells; type: functional; details: Homo sapiens
P388 = test: cells; type: functional; details: Mus musculus
Beta Lactamase = Beta Lactamase (Pseudomonas aeruginosa, UniProt Q932Y6); test: BLA reporter interference, concentration series – BLA reporter cells, FRET fluorescence, artefact control for TLR9-MyD88 binding inhibitor project, dose response (AID 588341); type: cell-based;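 also: cell based assay in CHO-K1 cells stably expressing beta-lactamase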
CHO = CHO cell viability loss, potency – luminescence, cytotoxicity control for TLR9-MyD88 binding inhibitor project, dose response (AID 588339); type: functional, cell-based, hamster; details: Cricetulus griseus;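 also: CHO cells stably coexpressing TLR9 and MyD88 fusions from primary screen; compound exposure lasted 48 hours before viability readout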
[3] = target: T1, Endoribonuclease toxin MazF (Escherichia coli K-12, UniProt P0AE70); test: activation of MazEF endoribonuclease cleavage – biochemical, fluorescence, single-stranded RNA substrate, uHTS hits, dose response (AID 588481); type: functional
T1 sequence (P0AE70 whole entry): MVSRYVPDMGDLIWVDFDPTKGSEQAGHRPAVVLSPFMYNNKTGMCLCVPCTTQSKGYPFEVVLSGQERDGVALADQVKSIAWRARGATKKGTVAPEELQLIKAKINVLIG

[4] = target: T1, Endoribonuclease toxin MazF; test: substrate-only fluorescence increase artefacts – biochemical, single-stranded RNase substrate, counter-screen for MazEF activator project, dose response (AID 588502); type: functional

Sequence of 72 kDa type IV collagenase (P08253 whole entry): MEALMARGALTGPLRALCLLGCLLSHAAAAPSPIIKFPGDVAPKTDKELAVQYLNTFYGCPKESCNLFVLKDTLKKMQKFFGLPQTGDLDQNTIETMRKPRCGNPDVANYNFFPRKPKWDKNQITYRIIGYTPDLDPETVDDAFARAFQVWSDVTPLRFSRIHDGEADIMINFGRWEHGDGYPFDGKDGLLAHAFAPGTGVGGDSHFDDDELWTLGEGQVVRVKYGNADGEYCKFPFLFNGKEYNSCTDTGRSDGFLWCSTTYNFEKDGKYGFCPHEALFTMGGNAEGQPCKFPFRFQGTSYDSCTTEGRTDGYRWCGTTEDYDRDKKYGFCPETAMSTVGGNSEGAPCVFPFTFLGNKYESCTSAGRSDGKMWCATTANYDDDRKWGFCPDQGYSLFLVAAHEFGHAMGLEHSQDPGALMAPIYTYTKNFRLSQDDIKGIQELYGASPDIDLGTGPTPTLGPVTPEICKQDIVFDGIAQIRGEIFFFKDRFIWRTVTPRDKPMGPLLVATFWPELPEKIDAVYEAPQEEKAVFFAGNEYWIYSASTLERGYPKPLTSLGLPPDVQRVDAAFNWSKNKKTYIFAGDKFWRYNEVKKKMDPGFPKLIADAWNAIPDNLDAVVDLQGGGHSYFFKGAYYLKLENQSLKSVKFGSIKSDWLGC
Sequence of 26S proteasome non-ATPase regulatory subunit 14 (O00487 whole entry): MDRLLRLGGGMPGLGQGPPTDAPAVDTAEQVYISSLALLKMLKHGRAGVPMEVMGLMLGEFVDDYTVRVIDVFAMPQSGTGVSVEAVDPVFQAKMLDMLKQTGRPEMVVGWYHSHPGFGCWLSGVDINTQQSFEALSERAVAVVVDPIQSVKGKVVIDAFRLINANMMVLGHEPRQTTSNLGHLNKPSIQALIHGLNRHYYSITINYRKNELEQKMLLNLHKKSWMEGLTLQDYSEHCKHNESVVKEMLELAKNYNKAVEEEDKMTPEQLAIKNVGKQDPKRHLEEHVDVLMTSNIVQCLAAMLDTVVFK
Sequence of Beta Lactamase (Q932Y6 whole entry, the tested form may be a part): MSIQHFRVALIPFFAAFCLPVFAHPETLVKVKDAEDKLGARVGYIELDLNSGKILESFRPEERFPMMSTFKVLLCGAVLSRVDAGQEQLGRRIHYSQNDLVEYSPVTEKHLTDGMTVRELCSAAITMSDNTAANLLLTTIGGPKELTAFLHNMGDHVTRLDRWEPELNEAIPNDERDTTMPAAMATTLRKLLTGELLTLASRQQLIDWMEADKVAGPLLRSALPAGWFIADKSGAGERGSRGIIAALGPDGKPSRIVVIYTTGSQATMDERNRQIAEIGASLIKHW

Question: How did the IC50 (Prothrombin) turn out when COc1ccccc1Cc1c(-c2cccc(Cl)c2)nc2ccc(Br)cn12 was run?
Answer: Its IC50 is 8.29 µM (active).

Question: And the IC50 [1]?
Answer: Its IC50 is 14.2 µM (active).

Question: What about the IC50 [2] of the same compound?
Answer: The IC50 was > 100 µM (inactive).

Question: Which GI50 (P388/ADR) does the source give for O=C(NC(Cc1ccc(I)cc1)C(=O)O)c1ccc(Br)cc1 (stereo not drawn) here?
Answer: The GI50 was 21.3 µM (inactive).

Question: What about the GI50 (SN12K1) of the same compound?
Answer: The GI50 was > 100 µM (inactive).

Question: And the GI50 (P388)?
Answer: Its GI50 is 53.7 µM (inactive).

Question: Which results are given for C/C(=N\Nc1ccc([N+](=O)[O-])cc1)c1cc2ccccc2o1?
Answer: IC50 (Prothrombin): 1.62 µM (active); IC50 [1]: 1.82 µM (active); IC50 (Beta Lactamase): 3 µM (active); IC50 (CHO): 49.7 µM (inactive); IC50 [2]: > 100 µM (inactive)

Question: Which GI50 (P388/ADR) does the source give for CC(C)=CCC(OC(=O)C=C(C)C)c1cc(O)c2c(c1O)C(=O)C=CC2=O (stereo not drawn) here?
Answer: Its GI50 is 0.023 µM (active).

Question: And the GI50 (SN12K1)?
Answer: Its GI50 is 1.2 µM (inactive).

Question: What about the GI50 (P388) of the same compound?
Answer: The GI50 was 0.0296 µM (active).

Question: How did the GI50 (SN12K1) turn out when COc1cc(/N=N\c2ccc(OC)c(S(=O)(=O)O)c2)c(C)cc1/N=N\c1ccc(/C=C/c2ccc(/N=[N+](/[O-])c3ccc(/C=C/c4ccc(/N=N/c5cc(C)c(/N=N\c6ccc(OC)c(S(=O)(=O)O)c6)cc5OC)cc4S(=O)(=O)O)c(S(=O)(=O)O)c3)cc2S(=O)(=O)O)c(S(=O)(=O)O)c1 was run?
Answer: Its GI50 is > 100 µM (inactive).

Question: What about the GI50 (P388) of the same compound?
Answer: Its GI50 is > 100 µM (inactive).

Question: What does the source list for COc1cc(C2c3cc4c(cc3[C@@H](Nc3ccc([N+](=O)[O-])cc3)C3COC(=O)[C@H]23)OCO4)cc(OC)c1O (stereo partly drawn)?
Answer: GI50 (P388/ADR): 0.324 µM (active); GI50 (SN12K1): 0.0427 µM (active); GI50 (P388): < 0.01 µM (active)

Question: Which results are given for CCOc1ccccc1C(=O)Nc1cc(Cl)ccc1O?
Answer: EC50 [3]: 38 µM (inactive); EC50 [4]: > 99 µM (inactive)

Question: How did the EC50 [3] turn out when Cc1[nH]c2ccccc2c1/C=C(\C#N)C(=O)NCc1ccccc1 was run?
Answer: Its EC50 is > 99 µM (inactive).

Question: And the EC50 [4]?
Answer: Its EC50 is > 99 µM (inactive).
